The text below walks through data of patent US5688799A, “9-Hydroxy-pyrido[1,2-a]pyrimidin-4-one ether derivatives” (Janssen Pharmaceutica N.V., priority 1993, dated 1997).

In assay [1] the test system is dopamine (symptoms elicited with the dopamine agonist apomorphine). Nature of the assay: combined apomorphine (APO), tryptamine (TRY) and norepinephrine (NOR) test in rats: apomorphine (APO). Type of assay: in vivo. The following applies: Rattus norvegicus, read-out: APO ED50.
The test system of assay [2] is serotonin (peripheral symptoms, hyperaemia, elicited with serotonin or tryptamine). Nature of the assay: combined APO, TRY, NOR test in rats: tryptamine (TRY) hyperaemia. The format is in vivo. To be noted: Rattus norvegicus.
Assay [3] deals with serotonin (central symptoms, convulsions, elicited with serotonin or tryptamine). As to the kind of experiment: combined APO, TRY, NOR test in rats: tryptamine (TRY) convulsions. To be noted: Rattus norvegicus, read-out: TRY convulsions ED50. Type of assay: in vivo.
For assay [4], the system named is norepinephrine (death upon administration of the α2 -agonist norepinephrine). Nature of the assay: animal or person. To be noted: Rattus norvegicus, read-out: NOR ED50. The format is in vivo, rats.
Setting [5] is: combined test in rats, apomorphine.
Where [6] appears, read: combined test in rats, tryptamine, central (convulsions).

The structures appear in SMILES notation. Read-outs that look alike come from different tables or passages of the source.

Consider `COC1CCCn2c1nc(C)c(CCN1CCC(c3noc4cc(F)ccc34)CC1)c2=O` (racemic) [Compound 7, (±)-3-[2-[4-(6-fluoro-1,2-benzisoxazol-3-yl)-1-piperidinyl]ethyl]-6,7,8,9-tetrahydro-9-methoxy-2-methyl-4H-pyrido[1,2-a]pyrimidin-4-one], for which the ED50 turned out to be 0.02 mg/kg in assay [1] (setting [5]), 0.00125 mg/kg in assay [2] and 0.02 mg/kg in assay [3] (setting [6]).
With `COc1cccn2c(=O)c(CCN3CCC(c4noc5cc(F)ccc45)CC3)c(C)nc12` [Compound 1, 3-[2-[4-(6-fluoro-1,2-benzisoxazol-3-yl)-1-piperidinyl]ethyl]-9-methoxy-2-methyl-4H-pyrido[1,2-a]pyrimidin-4-one], the results for the ED50 in assay [1] (setting [5]), in assay [2] and in assay [3] (setting [6]) were 0.31 mg/kg, 0.0025 mg/kg and 0.16 mg/kg, respectively.
On to `CCOCOc1cccn2c(=O)c(CCN3CCC(c4noc5cc(F)ccc45)CC3)c(C)nc12` [Compound 2, 9-(ethoxymethoxy)-3-[2-[4-(6-fluoro-1,2-benzisoxazol-3-yl)-1-piperidinyl]ethyl]-2-methyl-4H-pyrido[1,2-a]pyrimidin-4-one], for which the ED50 amounted to 1.25 mg/kg in assay [1], 0.01 mg/kg in assay [2], 1.25 mg/kg in assay [3] and 1.25 mg/kg in assay [4].
In the case of `CCCCCCCCCCCCOc1cccn2c(=O)c(CCN3CCC(c4noc5cc(F)ccc45)CC3)c(C)nc12` [Compound 3], the ED50 in assay [1] (setting [5]) is more than 10 mg/kg; in assay [2], 1.25 mg/kg; in assay [3] (setting [6]), more than 10 mg/kg.
Regarding `C=CCOc1cccn2c(=O)c(CCN3CCC(c4noc5cc(F)ccc45)CC3)c(C)nc12` [Compound 4, 3-[2-[4-(6-fluoro-1,2-benzisoxazol-3yl)-1-piperidinyl]ethyl]-2-methyl-9-(2-propenyloxy)-4H-pyrido[1,2-a]pyrimidin-4-one], the median effective dose (ED50) stood at 0.31 mg/kg in assay [1] (setting [5]), 0.005 mg/kg in assay [2], 0.31 mg/kg in assay [3] (setting [6]) and 0.16 mg/kg in assay [4].
In the case of `Cc1nc2c(OCCCC#N)cccn2c(=O)c1CCN1CCC(c2noc3cc(F)ccc23)CC1` [Compound 5], the ED50 in assay [1] is 1.25 mg/kg; in assay [2] it was 0.005 mg/kg; in assay [3], 1.25 mg/kg; in assay [4], 1.25 mg/kg.
With `C#CCOc1cccn2c(=O)c(CCN3CCC(c4noc5cc(F)ccc45)CC3)c(C)nc12` [Compound 6, 3-[2-[4-(6-fluoro-1,2-benzisoxazol-3-yl)-1-piperidinyl]ethyl]-2-methyl-9-(2-propynyloxy)-4H-pyrido[1,2-a]pyrimidin-4-one], the ED50 in assay [1] (setting [5]), in assay [3] (setting [6]) and in assay [4] was less than 0.63 mg/kg each time.
For `CCOCOC1CCCn2c1nc(C)c(CCN1CCC(c3noc4cc(F)ccc34)CC1)c2=O` (stereo not drawn) [Compound 8], the ED50 in assay [1] (setting [5]) came out at 0.31 mg/kg; in assay [2], 0.00125 mg/kg; in assay [3] (setting [6]) it was 0.16 mg/kg.
As for `CCCCCCCCCCCCOC1CCCn2c1nc(C)c(CCN1CCC(c3noc4cc(F)ccc34)CC1)c2=O` (stereo not drawn) [Compound 9], the ED50 was determined as 10 mg/kg in assay [1] (setting [5]), 0.01 mg/kg in assay [2], 1.25 mg/kg in assay [3] (setting [6]) and 2.5 mg/kg in assay [4].
For `CCCOC1CCCn2c1nc(C)c(CCN1CCC(c3noc4cc(F)ccc34)CC1)c2=O` (stereo not drawn) [Compound 10, 3-[2-[4-(6-fluoro-1,2-benzisoxazol-3-yl)-1-piperidinyl]ethyl]-6,7,8,9-tetrahydro-2-methyl-9-propoxy-4H-pyrido[1,2-a]pyrimidin-4-one], the ED50 in assay [1] (setting [5]) came to 0.08 mg/kg; in assay [2], 0.002 mg/kg; in assay [3] (setting [6]), 0.08 mg/kg; in assay [4], 0.16 mg/kg.
In the case of `COCCOC1CCCn2c1nc(C)c(CCN1CCC(c3noc4cc(F)ccc34)CC1)c2=O` (stereo not drawn) [Compound 11], the ED50 in assay [1] (setting [5]) is 0.31 mg/kg; in assay [2], 0.00125 mg/kg; in assay [3] (setting [6]), 0.63 mg/kg; in assay [4] it was 1.25 mg/kg.
